# Measurements taken from patent US9896423B2, “Deuterium substituted 1-[2-(2,4-dimethyl-phenylsulfanyl)-phenyl]piperazine compound or derivatives thereof, and pharmaceutical composition and use thereof” (Jiangsu Jibeier Pharmaceutical Co. Ltd., priority 2014, dated 2018).
# Where a name gives a salt, the structure may show the parent alone.
# Columns and labels:
# Male ICR mice [1] = assay: Mice tail suspension test; type: in vivo
# Excerpt: (§1) The following method is used for testing the antidepression effect of the compound of the present application. ICR mice or SD rats, gavaged for two successive weeks, were subjected to mice swimming test, mice tail suspension test and rats swimming test. See below for details of the tests and results.
# The animals, medicaments, calculation of dosages to the mice, preparation of drug solution and apparatus are the same as those in the mice swimming test.
# The medicaments were correspondingly administered by gavage, once a day, to the animals in the groups for 14 successive days, with the amount of 0.2 ml per 10 g of body weight. The mice were subjected to tail suspension one hour later after the last oral administration. The suspension continued for 6 min.
# The data was given as “average±standard deviation” (x±s). One-way analysis of variance (ANOVA) was used for data difference statistics. Differences among the groups were determined by P<0.05.
# Male ICR mice [2] = assay: Mice swimming test; type: in vivo
# Excerpt: as §1
# Male ICR mice weighing 18 g to 20 g were used. They were fed on sterilized standard feed.
# The compound administered in the test was 1-{2-[2,4-bis(trideuteriomethyl)phenylsulfanyl]phenyl}piperazine hydrobromic acid salt (XX for short). Vortioxetine (YY for short) was used as a control sample. Venlafaxine HCl (from Wyeth, USA) was used as a positive control.
# Vortioxetine (15 mg) was combined with 10% hydroxypropyl-β-cyclodextrin to form a solution of 100 mL and was administered at daily dose of 3 mg/kg. 1-{2-[2,4-bis(trideuteriomethyl)phenylsulfanyl]phenyl}piperazine hydrobromic acid salt (15 mg and 7.5 mg) was combined with 10% hydroxypropyl-β-cyclodextrin to form two solutions of 100 mL and was administered at daily doses of 3 mg/kg and 1.5 mg/kg, respectively. Venlafaxine HCl (75 mg) was combined with 0.5% CMC-Na to form a solution of 100 mL and was administered at daily dose of […].
# A recording and analysis system for small-animal behavior (Noldus) was used.
# All the eighty mice were subjected to prescreening one day before the administration. The mice, fasted for 4 hours were put in a round glass tank (ø 14 cm×h 20 cm, with water of 10 cm depth and at a temperature of 25° C.) to swim. […] The whole swimming course was recorded by the video and the data were collected and analyzed automatically by Noldus software.
# The forty qualified mice were divided into 4 groups, each of which had 10 mice, according to the Excel random grouping.
# The medicaments were administered to each group by gavage with the amount of 0.2 ml per 10 g of body weight, once a day for 14 successive days. One hour later after the last oral administration, the mice were allowed to swim for 6 min. The video recorded the whole swimming course, and the Noldus software automatically collected and analyzed the data.
# The data was given as “average±standard deviation” (x±s). One-way analysis of variance (one-way ANOVA) was used for data difference statistics. Differences among the groups were determined by P<0.05.
# [3] = 30 mg/kg gavage, two successive weeks
smiles,measurement,setting,value
"COc1ccc(C(CN(C)C)C2(O)CCCCC2)cc1 (stereo not shown) [Venlafaxine, Venlafaxine HCl, reference compound]",effect on length of time that the tail-suspended mice stopped moving vs blank control,Male ICR mice [1]; [3],markedly shortened
same,Duration without Move within 6 min,"Male ICR mice [1]; mice tail suspension, gavage 14 days, 30 mg/kg, n = 10, x ± s",180.6 ± 661.8 s
same,effect on length of time that the mice stopped swimming vs blank control,Male ICR mice [2]; [3],markedly shortened
same,Duration without Movement within the Last 4 min of the Whole 6 min,"Male ICR mice [2]; mice, gavage once a day for 14 days, 30 mg/kg, n = 10, x ± s",173.6 ± 31.4 s
